Consider two compounds from PubChem BioAssay AID1259407 (Chemical Carcinogenesis Research Information System (CCRIS), 2018).

Activity calls are given as the source filed them. How the calls were made is not given here.

This data set concerns CCRIS mutagenicity, Ames/micronucleus/aberration tests. The data set can be described thus: CCRIS mutagenicity studies.
[1] abbreviates: Test System: AMES SALMONELLA TYPHIMURIUM, Strain/Indicator: TA98, Metabolic Activation: NONE, Method: STANDARD PLATE.

Turning to `Cl`, the mutagenic call (End Point: IN VITRO CHROMOSOMAL ABERRATIONS, Test System: CHO-WBL CELLS, Metabolic Activation: NONE) was “active; positive (structural changes); osmolality of solution decisive factor”; the mutagenic call (Test System: AMES SALMONELLA TYPHIMURIUM, Strain/Indicator: TA97, Metabolic Activation: NONE, Method: PREINCUBATION) was “inactive; negative”; the mutagenic call (Test System: AMES SALMONELLA TYPHIMURIUM, Strain/Indicator: TA97, Metabolic Activation: NONE, Method: STANDARD PLATE) was “inactive; negative”; the mutagenic call (Test System: AMES SALMONELLA TYPHIMURIUM, Strain/Indicator: TA97, Metabolic Activation: RAT, LIVER, S-9, AROCLOR 1254, Method: PREINCUBATION) was “inactive; negative”; the mutagenic call (Test System: AMES SALMONELLA TYPHIMURIUM, Strain/Indicator: TA97, Metabolic Activation: RAT, LIVER, S-9, PHENOBARBITAL, Method: STANDARD PLATE) was “inactive; negative”; the mutagenic call (Test System: AMES SALMONELLA TYPHIMURIUM, Strain/Indicator: TA98, Metabolic Activation: NONE, Method: PREINCUBATION) is “inactive; negative”. The mutagenic call by setting is: under setting [1], “inactive; negative”; (Test System: AMES SALMONELLA TYPHIMURIUM, Strain/Indicator: TA98, Metabolic Activation: RAT, LIVER, S-9, KC 500, Method: PREINCUBATION) “inactive; negative”; (Test System: AMES SALMONELLA TYPHIMURIUM, Strain/Indicator: TA98, Metabolic Activation: RAT, LIVER, S-9, PHENOBARBITAL, Method: STANDARD PLATE) “inactive; negative”; (Test System: AMES SALMONELLA TYPHIMURIUM, Strain/Indicator: TA100, Metabolic Activation: NONE, Method: PREINCUBATION) “inactive; negative”; (Test System: AMES SALMONELLA TYPHIMURIUM, Strain/Indicator: TA100, Metabolic Activation: NONE, Method: STANDARD PLATE) “inactive; negative”; (Test System: AMES SALMONELLA TYPHIMURIUM, Strain/Indicator: TA100, Metabolic Activation: RAT, LIVER, S-9, KC 500, Method: PREINCUBATION) “inactive; negative”. The mutagenic call is, setting by setting: (Test System: AMES SALMONELLA TYPHIMURIUM, Strain/Indicator: TA100, Metabolic Activation: RAT, LIVER, S-9, PHENOBARBITAL, Method: STANDARD PLATE) “inactive; negative”; (Test System: AMES SALMONELLA TYPHIMURIUM, Strain/Indicator: TA102, Metabolic Activation: NONE, Method: PREINCUBATION) “inactive; negative”; (Test System: AMES SALMONELLA TYPHIMURIUM, Strain/Indicator: TA102, Metabolic Activation: RAT, LIVER, S-9, AROCLOR 1254, Method: PREINCUBATION) “inactive; negative”; (Test System: AMES SALMONELLA TYPHIMURIUM, Strain/Indicator: TA1535, Metabolic Activation: NONE, Method: PREINCUBATION) “inactive; negative”; (Test System: AMES SALMONELLA TYPHIMURIUM, Strain/Indicator: TA1535, Metabolic Activation: NONE, Method: STANDARD PLATE) “inactive; negative”; (Test System: AMES SALMONELLA TYPHIMURIUM, Strain/Indicator: TA1535, Metabolic Activation: RAT, LIVER, S-9, KC 500, Method: PREINCUBATION) “inactive; negative”. Moreover, the mutagenic call was “inactive; negative” (Test System: AMES SALMONELLA TYPHIMURIUM, Strain/Indicator: TA1535, Metabolic Activation: RAT, LIVER, S-9, PHENOBARBITAL, Method: STANDARD PLATE); “inactive; negative” (Test System: AMES SALMONELLA TYPHIMURIUM, Strain/Indicator: TA1537, Metabolic Activation: NONE, Method: PREINCUBATION); “inactive; negative” (Test System: AMES SALMONELLA TYPHIMURIUM, Strain/Indicator: TA1537, Metabolic Activation: NONE, Method: STANDARD PLATE); “inactive; negative” (Test System: AMES SALMONELLA TYPHIMURIUM, Strain/Indicator: TA1537, Metabolic Activation: RAT, LIVER, S-9, KC 500, Method: PREINCUBATION); “inactive; negative” (Test System: AMES SALMONELLA TYPHIMURIUM, Strain/Indicator: TA1537, Metabolic Activation: RAT, LIVER, S-9, PHENOBARBITAL, Method: STANDARD PLATE); “inactive; negative” (Test System: AMES SALMONELLA TYPHIMURIUM, Strain/Indicator: TA1538, Metabolic Activation: NONE, Method: PREINCUBATION). For the same compound, the mutagenic call by setting is: (Test System: AMES SALMONELLA TYPHIMURIUM, Strain/Indicator: TA1538, Metabolic Activation: NONE, Method: STANDARD PLATE) “inactive; negative”; (Test System: AMES SALMONELLA TYPHIMURIUM, Strain/Indicator: TA1538, Metabolic Activation: RAT, LIVER, S-9, KC 500, Method: PREINCUBATION) “inactive; negative”; (Test System: AMES SALMONELLA TYPHIMURIUM, Strain/Indicator: TA1538, Metabolic Activation: RAT, LIVER, S-9, PHENOBARBITAL, Method: STANDARD PLATE) “inactive; negative”; (Test System: E. COLI, Strain/Indicator: WP2 UVRA, Metabolic Activation: NONE, Method: PREINCUBATION) “inactive; negative”; (Test System: E. COLI, Strain/Indicator: WP2 UVRA, Metabolic Activation: NONE, Method: SPOT TEST) “inactive; negative”; (Test System: E. COLI, Strain/Indicator: WP2 UVRA, Metabolic Activation: RAT, LIVER, S-9, KC 500, Method: PREINCUBATION) “inactive; negative”. The mutagenic call was “inactive; negative” (Test System: MOUSE LYMPHOMA, Strain/Indicator: L5178Y (TK+/TK-), Metabolic Activation: NONE, Method: SUSPENSION/PLATE); “active; positive” (Test System: MOUSE LYMPHOMA, Strain/Indicator: L5178Y (TK+/TK-), Metabolic Activation: RAT, LIVER, S-9, AROCLOR 1254, Method: SUSPENSION/PLATE); “active; positive” (Test System: MOUSE LYMPHOMA, Strain/Indicator: L5178Y (TK+/TK-), Metabolic Activation: RAT, LIVER, S-9, Method: SUSPENSION/PLATE).
As to `CC(=O)N(O)c1ccc(Sc2ccccc2)cc1`, the mutagenic call is, setting by setting: under setting [1], “active; positive”; (Test System: AMES SALMONELLA TYPHIMURIUM, Strain/Indicator: TA98, Metabolic Activation: RAT, LIVER, S-9, AROCLOR 1254, Method: STANDARD PLATE) “active; positive”.
